This note sets out measurements from patent US20140363830A1, “COMPOUNDS THAT MODULATE HSP90 ACTIVITY AND METHODS FOR IDENTIFYING SAME” (SYNTA PHARMACEUTICALS CORP., priority 2006, published 2014).

Data set [1] has as its system c-kit. In words: FACS-based c-kit degradation assay in HEL92.1.7 cells. The data set is classed as cell-based. Particulars: about 18 h. How it is done: (§1) Two leukemia cell lines, HEL92.1.7 and Kasumi-1, were used for testing c-kit degradation induced by Hsp90 inhibitors of the invention. […] The cells were collected and centrifuged (SORVALL RT 6000D) at 1200 rpm for 5 min. The supernatants were discarded, and the cells were washed one time with 1×PBS. After centrifugation the cells were stained with FITC conjugated c-kit antibody (MBL International, Cat #K0105-4) in 100 ml 1×PBS at 4° C. for 1 h. The samples were read and analysized with FACSCalibur flow cytometer (Becton Dicknson).

The test system of data set [2] is c-kit. The data set can be described thus: FACS-based c-kit degradation assay in Kasumi-1 cells. The conditions noted are these: about 18 h. The class given is cell-based. How it is done:
as §1

The test system of data set [3] is c-kit. In words: Western blot analysis of c-Kit in Kasumi-1 cells. The data set is classed as cell-based. An excerpt:
The results of the FACS analysis were confirmed with Western blot analysis (see FIG. 5). […] In contrast, 17-AAG had no effect of c-Kit protein levels.
Background: A western blot detects proteins with antibodies after separation by electrophoresis.

Data set [4] has as its system RERF-LC-AI^IVP human lung tumor cells. In words: RERF-LC-AI^IVP nude mouse xenograft model. The data set is classed as in vivo. How it is done:
The human squamous non-small cell lung cancer cell line, RERF-LC-AI (RCB0444; S. Kyoizumi, et al., Cancer. Res. 45:3274-3281, 1985), was obtained from the Riken Cell Bank (Tsukuba, Ibaraki, Japan). […] FBS was obtained from American Type Culture Collection (Manassas, Va., USA) and all other reagents were obtained from Invitrogen Corp. (Carlsbad, Calif., USA). Approximately 4-5×10(6) cells that had been cryopreserved in liquid nitrogen were rapidly thawed at 37° C. and transferred to a 175 cm^2 tissue culture flask containing 50 ml of growth media and then incubated at 37° C. in a 5% CO2 incubator.
(§2) The growth media was replaced every 2-3 days until the flask became 90% confluent, typically in 5-7 days. To passage and expand the cell line, a 90% confluent flask was washed with 10 ml of room temperature phosphate buffered saline (PBS) and the cells were disassociated by adding 5 ml 1× trypsin-EDTA (Invitrogen) and incubating at 37° C. until the cells detached from the surface of the flask. To inactivate the trypsin, 5 ml of growth media was added and then the contents of the flask were centrifuged to pellet the cells. The supernatant was aspirated and the cell pellet was resuspended in 10 ml of growth media and the cell number determined using a hemocytometer. Approximately 1−3×10(6) cells per flask were seeded into 175 cm^2 flasks containing 50 ml of growth media and incubated at 37° C. in a 5% CO2 incubator. When the flasks reached 90% confluence, the above passaging process was repeated until sufficient cells had been obtained for implantation into mice.
Seven to eight week old, female Crl:CD-1-nuBR (nude) mice were obtained from Charles River Laboratories (Wilmington, Mass., USA) Animals were housed 4-5/cage in micro-isolators, with a 12 hr/12 hr light/dark cycle, acclimated for at least 1 week prior to use and fed normal laboratory chow ad libitum. Studies were conducted on animals between 8 and 12 weeks of age at implantation. […] Using a 27 gauge needle and 1 cc syringe, 0.1 ml of the cell suspension was injected subcutaneously into the flank of each nude mouse. Tumor volumes (V) were calculated by caliper measurement of the width (W), length (L) and thickness (T) of tumors using the following formula: V=0.5236×(L×W×T).
In vivo passaged RERF-LC-AI tumor cells (RERF-LC-AI^IVP) were isolated to improve the rate of tumor implantation relative to the parental cell line in nude mice. RERF-LC-AI tumors were permitted to develop in vivo until they reached approximately 250 mm^3 in volume, which required approximately 3 weeks following implantation. Mice were euthanized via CO2 asphyxiation and their exteriors sterilized with 70% ethanol in a laminar flow hood. Using sterile technique, tumors were excised and diced in 50 ml PBS using a scalpel blade. A single cell suspension was prepared using a 55 ml Wheaton Safe-Grind tissue grinder (catalog #62400-358; VWR International, West Chester, Pa., USA) by plunging the pestle up and down 4-5 times without twisting. The suspension was strained through a […] nylon cell strainer and then centrifuged to pellet the cells. The resulting pellet was resuspended in 0.1 M NH4Cl to lyse contaminating red blood cells and then immediately centrifuged to pellet the cells. The cell pellet was resuspended in growth media and seeded into 175 cm^2 flasks containing 50 ml of growth media at 1-3 tumors/flask or approximately 10×10(6) cells/flask. […]

Another data set has as its system Her2. In words: Degradation of Her2 in BT-474 cells (Western blot). The conditions noted are these: for Her2 degradation: overnight. The data set is classed as cell-based, Human. How it is done:
Human high-Her2 breast carcinoma BT474 (HTB-20), SK-BR-3 (HTB-30) and MCF-7 breast carcinoma (HTB-22) from American Type Culture Collection, VA, USA were grown in Dulbecco's modified Eagle's medium with 4 mM L-glutamine and antibiotics (100 IU/ml penicillin and 100 ug/ml streptomycine; GibcoBRL). To obtain exponential cell growth, cells were trypsinized, counted and seeded at a cell density of 0.5×10^6 cells/ml regularly, every 3 days. All experiments were performed on day 1 after cell passage.
After treatment, each cytoplasmic sample was prepared from 1×10^6 cells by incubation of cell lysis buffer (#9803, cell Signaling Technology) on ice for 10 minutes. The resulting supernatant used as the cytosol fractions were dissolved with sample buffer for SDS-PAGE and run on a SDS-PAGE gel, blotted onto a nitrocellulose membrane by using semi-dry transfer. Non-specific binding to nitrocellulose was blocked with 5% skim milk in TBS with 0.5% Tween at room temperature for 1 hour, then probed with anti-Her2/ErB2 mAb (rabbit IgG, #2242, Cell Signaling) and anti-Tubulin (T9026, Sigma) as housekeeping control protein. HRP-conjugated goat antirabbit IgG (H+L) and HRP-conjugated horse antimouse IgG (H+L) were used as secondary Ab (#7074, #7076, Cell Signaling) and LumiGLO reagent, 20× Peroxide (#7003, Cell Signaling) was used for visualization.

Data set [5] has as its system human tumor cell line MDA-MB-435S. In words: MDA-MB-435S nude mouse xenograft model. Particulars: 300 mg/kg body weight IP, 5 days per week for 3 weeks. The data set is classed as in vivo. How it is done:
as §2, with “FBS was obtained from Sigma-Aldrich Corp. (St. Louis, Mo., USA), and all other reagents were obtained from Invitrogen Corp. (Carlsbad, Calif., USA). Approximately 4-5×10(6) cells that had been cryopreserved in liquid nitrogen were rapidly thawed at 37° C. and transferred to a 175 cm^2 tissue culture flask containing 50 ml of growth media and then incubated at 37° C. in a 5% CO2 incubator. The growth” for “The growth”, “ml 1× Trypsin-EDTA (Invitrogen) and” for “ml 1× trypsin-EDTA (Invitrogen) and”, “hemocytometer. Approximately 1-3×10(6) cells per” for “hemocytometer. Approximately 1−3×10(6) cells per”
Six to eight week old, female Crl:CD-1-nuBR (nude) mice were obtained from Charles River Laboratories (Wilmington, Mass., USA) Animals were housed 4-5/cage in micro-isolators, with a 12 hr/12 hr light/dark cycle, acclimated for at least 1 week prior to use and fed normal laboratory chow ad libitum. Studies were conducted on animals between 7 and 12 weeks of age at implantation. […] Tumor volumes (V) were calculated by caliper measurement of the width (W), length (L) and thickness (T) of tumors using the following formula: V=[…]×(L×W×T) Animals were randomized into treatment groups so that the average tumor volumes of each group were similar at the start of dosing. […]

Where [6] appears, read: 200 mg/kg body weight i.p., 5 days per week, 15 doses.

As for `C=CCNC1=C2C[C@@H](C)C[C@H](OC)[C@H](O)[C@@H](C)/C=C(\C)[C@H](OC(N)=O)[C@@H](OC)/C=C\C=C(/C)C(=O)NC(=CC1=O)C2=O` [Compound 17-AAG, 17-allylamino-17-demethoxygeldanamycin, reference compound], the c-kit degradation result in the data set on c-kit [1] (0.5 μM) and in the data set with c-kit [2] (0.5 μM) was “could not induce c-kit degradation” throughout. Further, in the data set on c-kit [3] (concentration not given), the “c-Kit protein levels (Western blot)” value was “had no effect”. Further, the “growth rate of RERF-LC-AI^IVP human lung tumor cells in nude mice” value in data set [4] (75 mg/kg body weight i.p., 5 days per week, 15 doses) is “decreased the growth rate”. Moreover, the “maximum tolerated dose in nude mice” value in data set [4] (i.p., 5 times per week) is roughly 75 mg/kg body weight.

As for `CC(C)c1cc(-c2nnc(S)n2-c2ccc3c(ccn3C)c2)c(O)cc1O` [Compound 221, 3-(2,4-dihydroxy-5-isopropyl-phenyl)-4-(N-methyl-indol-5-yl)-5-mercapto-[1,2,4]triazole], the c-kit degradation entry in the data set with c-kit [1] (0.05 μM), with c-kit [1] (0.5 μM), in the data set on c-kit [2] (0.05 μM) and with c-kit [2] (0.5 μM) was “induced c-kit degradation” in each case. In addition, the “degradation of c-Kit (Western blot)” value in the data set with c-kit [3] (100 nM) and in the data set with c-kit [3] (400 nM) was “induced the degradation of c-Kit” each time.

In the case of `CCc1cc(-c2nnc(S)n2-c2ccc(OC)c3c2ccn3C(C)C)c(O)cc1O` [Compound 188, 3-(2,4-Dihydroxy-5-ethyl-phenyl)-4-(1-isopropyl-7-methoxy-indol-4-yl)-5-mercapto-[1,2,4]triazole], the c-kit degradation result with c-kit [1] (0.05 μM), in the data set on c-kit [1] (0.5 μM), in the data set on c-kit [2] (0.05 μM) and in the data set on c-kit [2] (0.5 μM) was “induced c-kit degradation” each time. The “effect on body weights” value in data set [4] (setting [6]) is “minimal effect on body weights”. The “growth rate of RERF-LC-AI^IVP human lung tumor cells in nude mice” value in data set [4] (setting [6]) is “decreased the growth rate”. Also, the “maximum tolerated dose in nude mice” value in data set [4] (mouse, in vivo, ip) was roughly 200 mg/kg body weight.

With `CCc1cc(-c2nnc(S)n2-c2cccc3ccccc23)c(O)cc1O` [Compound 49, 3-(2,4-Dihydroxy-5-ethyl-phenyl)-4-(naphthalen-1-yl)-5-mercapto-[1,2,4]triazole], the “Activity in Her2 degradation relative to Compound 108” value in the data set on Her2 is reported as “even more active than Compound 108”. Moreover, the Her2 degradation result is on record as “partial degradated” with Her2 (0.5 μM), “complete degradation” in the data set with Her2 (2 μM) and “complete degradation” with Her2 (5 μM). Besides, in data set [5], the “effect on body weights” value is “lack of an effect on body weights”. Also, the toxicity result in data set [5] is given as “not associated with significant toxicity”. Also, the “growth rate of MDA-MB-435S cells in nude mice” value in data set [5] (compared with 100 mg/kg 17-AAG) is reported as “decreased the growth rate of MDA-MB-435S cells in nude mice to a greater extent than did a dose of 100 mg/kg body weight of the Hsp90 inhibitor 17-AAG”.
